Reference: ChEMBL document CHEMBL4007388, “Synthesis and antiproliferative activity of monocationic arylthiophene derivatives” (Eur J Med Chem, 2017)
pIC50: −log10 of the molar value.

Legend:
A498 = experiment: Growth inhibition of human A498 cells incubated for 48 hrs by sulforhodamine B assay; format: functional; settings: A498, 48 h
ACHN = experiment: Growth inhibition of human ACHN cells incubated for 48 hrs by sulforhodamine B assay; format: functional
MDA-MB-468 = experiment: Growth inhibition of human MDA-MB-468 cells incubated for 48 hrs by sulforhodamine B assay; format: functional; settings: MDA-MB-468, 48 h
SK-MEL-2 = experiment: Growth inhibition of human SK-MEL-2 cells incubated for 48 hrs by sulforhodamine B assay; format: functional; settings: SK-MEL-2, 48 h
NCI/ADR-RES = experiment: Growth inhibition of human NCI/ADR-RES cells incubated for 48 hrs by sulforhodamine B assay; format: functional
[1] = Growth inhibition of human NCI60 cells at 10 uM after 48 hrs by SRB assay relative to control; values are per cent of control; settings: NCI60, 48 h
PC-3 = experiment: Growth inhibition of human PC3 cells incubated for 48 hrs by sulforhodamine B assay; format: functional; settings: PC-3, 48 h
KM12 = experiment: Growth inhibition of human KM12 cells incubated for 48 hrs by sulforhodamine B assay; format: functional; settings: KM12, 48 h
HCC 2998 = experiment: Growth inhibition of human HCC2998 cells incubated for 48 hrs by sulforhodamine B assay; format: functional; settings: HCC 2998, 48 h
WI-38 = experiment: Cytotoxicity against human WI38 cells assessed as reduction in cell viability after 24 hrs by MTT assay; format: cell-based; settings: WI-38, 24 h
CAKI-1 = experiment: Growth inhibition of human Caki1 cells incubated for 48 hrs by sulforhodamine B assay; format: functional; settings: CAKI-1, 48 h
OVCAR-8 = experiment: Growth inhibition of human OVCAR8 cells incubated for 48 hrs by sulforhodamine B assay; format: functional; settings: OVCAR-8, 48 h
RXF 393 = experiment: Growth inhibition of human RXF393 cells incubated for 48 hrs by sulforhodamine B assay; format: functional; settings: RXF 393, 48 h
NCI-H23 = experiment: Growth inhibition of human NCI-H23 cells incubated for 48 hrs by sulforhodamine B assay; format: functional; settings: NCI-H23, 48 h
NCI-H322M = experiment: Growth inhibition of human NCI-H322M cells incubated for 48 hrs by sulforhodamine B assay; format: functional
SK-OV-3 = experiment: Growth inhibition of human SKOV3 cells incubated for 48 hrs by sulforhodamine B assay; format: functional; settings: SK-OV-3, 48 h
COLO 205 = experiment: Growth inhibition of human COLO205 cells incubated for 48 hrs by sulforhodamine B assay; format: functional; settings: COLO 205, 48 h
SNB-75 = experiment: Growth inhibition of human SNB75 cells incubated for 48 hrs by sulforhodamine B assay; format: functional; settings: SNB-75, 48 h
NCI-H226 = experiment: Growth inhibition of human NCI-H226 cells incubated for 48 hrs by sulforhodamine B assay; format: functional; settings: NCI-H226, 48 h
HCT-15 = experiment: Growth inhibition of human HCT15 cells incubated for 48 hrs by sulforhodamine B assay; format: functional; settings: HCT-15, 48 h
MDA-MB-435 = experiment: Growth inhibition of human MDA-MB-435 cells incubated for 48 hrs by sulforhodamine B assay; format: functional; settings: MDA-MB-435, 48 h
WISH = experiment: Cytotoxicity against human WISH cells assessed as reduction in cell viability after 24 hrs by MTT assay; format: cell-based
CCRF-CEM = experiment: Growth inhibition of human CCRF-CEM cells incubated for 48 hrs by sulforhodamine B assay; format: functional
M14 = experiment: Growth inhibition of human M14 cells incubated for 48 hrs by sulforhodamine B assay; format: functional; settings: M14, 48 h
LOX IMVI = experiment: Growth inhibition of human LOXIMVI cells incubated for 48 hrs by sulforhodamine B assay; format: functional
K562 = experiment: Growth inhibition of human K562 cells incubated for 48 hrs by sulforhodamine B assay; format: functional; settings: K562, 48 h
MCF7 = experiment: Growth inhibition of human MCF7 cells incubated for 48 hrs by sulforhodamine B assay; format: functional; settings: MCF7, 48 h
TK-10 = experiment: Growth inhibition of human TK10 cells incubated for 48 hrs by sulforhodamine B assay; format: functional; settings: TK-10, 48 h
786-0 = experiment: Growth inhibition of human 786-O cells incubated for 48 hrs by sulforhodamine B assay; format: functional; settings: 786-0, 48 h
SR = experiment: Growth inhibition of human SR cells incubated for 48 hrs by sulforhodamine B assay; format: functional
RPMI-8226 = experiment: Growth inhibition of human RPMI8226 cells incubated for 48 hrs by sulforhodamine B assay; format: functional; settings: RPMI-8226, 48 h
SNB-19 = experiment: Growth inhibition of human SNB19 cells incubated for 48 hrs by sulforhodamine B assay; format: functional; settings: SNB-19, 48 h
SW-620 = experiment: Growth inhibition of human SW620 cells incubated for 48 hrs by sulforhodamine B assay; format: functional; settings: SW-620, 48 h
DU-145 = experiment: Growth inhibition of human DU145 cells incubated for 48 hrs by sulforhodamine B assay; format: functional; settings: DU-145, 48 h
Homo sapiens = organism: Homo sapiens; experiment: Inhibition of PTK in human MCF7 cells at 1 uM preincubated for 2 hrs followed by poly-Glu-Tyr substrate addition by ELISA relative to control; format: cell-based
SN12C = experiment: Growth inhibition of human SN12C cells incubated for 48 hrs by sulforhodamine B assay; format: functional
[2] = Antioxidant activity assessed as superoxide dismutase-like activity by measuring inhibition of superoxide radical anion production at 2 uM by NBT reduction assay relative to control; format: functional
NCI-H522 = experiment: Growth inhibition of human NCI-H522 cells incubated for 48 hrs by sulforhodamine B assay; format: functional; settings: NCI-H522, 48 h
HL-60(TB) = experiment: Growth inhibition of human HL-60(TB) cells incubated for 48 hrs by sulforhodamine B assay; format: functional; settings: HL-60, 48 h
BT-549 = experiment: Growth inhibition of human BT549 cells incubated for 48 hrs by sulforhodamine B assay; format: functional; settings: BT-549, 48 h
MOLT-4 = experiment: Growth inhibition of human MOLT4 cells incubated for 48 hrs by sulforhodamine B assay; format: functional; settings: MOLT-4, 48 h
HT-29 = experiment: Growth inhibition of human HT-29 cells incubated for 48 hrs by sulforhodamine B assay; format: functional; settings: HT-29, 48 h
HCT-116 = experiment: Growth inhibition of human HCT116 cells incubated for 48 hrs by sulforhodamine B assay; format: functional; settings: HCT-116, 48 h
HOP-92 = experiment: Growth inhibition of human HOP92 cells incubated for 48 hrs by sulforhodamine B assay; format: functional; settings: HOP-92, 48 h
UACC-257 = experiment: Growth inhibition of human UACC257 cells incubated for 48 hrs by sulforhodamine B assay; format: functional; settings: UACC-257, 48 h
IGROV-1 = experiment: Growth inhibition of human IGROV1 cells incubated for 48 hrs by sulforhodamine B assay; format: functional; settings: IGROV-1, 48 h
HOP-62 = experiment: Growth inhibition of human HOP62 cells incubated for 48 hrs by sulforhodamine B assay; format: functional; settings: HOP-62, 48 h

## N=C(N)c1ccc(-c2ccc(-c3ccc(Cl)cc3)s2)cc1
A498
  GI50: 191 nM
ACHN
  GI50: 180 nM
MDA-MB-468
  GI50: 173 nM
SK-MEL-2
  GI50: 241 nM
NCI/ADR-RES
  GI50: 185 nM
[1]
  growth percent at 10 µM: -70.5%
PC-3
  GI50: 164 nM
KM12
  GI50: 196 nM
HCC 2998
  GI50: 183 nM
WI-38
  pIC50: 3.88
CAKI-1
  GI50: 167 nM
OVCAR-8
  GI50: 223 nM
RXF 393
  GI50: 157 nM
NCI-H23
  GI50: 190 nM
NCI-H322M
  GI50: 182 nM
SK-OV-3
  GI50: 246 nM
COLO 205
  GI50: 203 nM
SNB-75
  GI50: 157 nM
NCI-H226
  GI50: 451 nM
HCT-15
  GI50: 171 nM
MDA-MB-435
  GI50: 172 nM
WISH
  pIC50: 3.83
CCRF-CEM
  GI50: 200 nM
M14
  GI50: 172 nM
LOX IMVI
  GI50: 179 nM
K562
  GI50: 202 nM
MCF7
  GI50: 171 nM
TK-10
  GI50: 220 nM
786-0
  GI50: 178 nM
SR
  GI50: 249 nM
RPMI-8226
  GI50: 194 nM
SNB-19
  GI50: 194 nM
SW-620
  GI50: 177 nM
DU-145
  GI50: 185 nM
Homo sapiens
  inhibition: 98%
SN12C
  GI50: 180 nM
[2]
  inhibition: 60.6%
NCI-H522
  GI50: 186 nM
HL-60(TB)
  GI50: 214 nM
BT-549
  GI50: 1730 nM
MOLT-4
  GI50: 207 nM
HT-29
  GI50: 177 nM
HCT-116
  GI50: 170 nM
HOP-92
  GI50: 156 nM
UACC-257
  GI50: 310 nM

## N=C(N)c1ccc(-c2ccc(-c3ccccc3)s2)cc1F
A498
  GI50: 12800 nM
ACHN
  GI50: 6560 nM
MDA-MB-468
  GI50: 2040 nM
SK-MEL-2
  GI50: 4910 nM
IGROV-1
  GI50: 5.29 µM
NCI/ADR-RES
  GI50: 14100 nM
[1]
  growth percent at 10 µM: -79.2%
PC-3
  GI50: 4180 nM
KM12
  GI50: 4410 nM
HCC 2998
  GI50: 2450 nM
WI-38
  pIC50: 4.04
CAKI-1
  GI50: 6790 nM
OVCAR-8
  GI50: 11300 nM
RXF 393
  GI50: 7010 nM
HOP-62
  GI50: 10.5 µM
NCI-H23
  GI50: 11600 nM
NCI-H322M
  GI50: 6000 nM
SK-OV-3
  GI50: 10200 nM
COLO 205
  GI50: 1820 nM
SNB-75
  GI50: 10500 nM
NCI-H226
  GI50: 12900 nM
HCT-15
  GI50: 4620 nM
MDA-MB-435
  GI50: 2180 nM
WISH
  pIC50: 4.09
CCRF-CEM
  GI50: 3200 nM
M14
  GI50: 2120 nM
LOX IMVI
  GI50: 2580 nM
K562
  GI50: 3970 nM
MCF7
  GI50: 3170 nM
TK-10
  GI50: 10700 nM
786-0
  GI50: 6020 nM
SR
  GI50: 3110 nM
RPMI-8226
  GI50: 2780 nM
SNB-19
  GI50: 11700 nM
SW-620
  GI50: 4050 nM
DU-145
  GI50: 11300 nM
Homo sapiens
  inhibition: 19 to 36%
SN12C
  GI50: 8010 nM
[2]
  inhibition: 54.5%
NCI-H522
  GI50: 6800 nM
HL-60(TB)
  GI50: 2140 nM
BT-549
  GI50: 10700 nM
MOLT-4
  GI50: 4400 nM
HT-29
  GI50: 3400 nM
HCT-116
  GI50: 3260 nM
HOP-92
  GI50: 1310 nM
UACC-257
  GI50: 2180 nM

## COc1cc(OC)cc(-c2ccc(-c3ccc(C(=N)N)cc3)s2)c1
A498
  GI50: 1730 nM
ACHN
  GI50: 1770 nM
MDA-MB-468
  GI50: 1680 nM
SK-MEL-2
  GI50: 1950 nM
IGROV-1
  GI50: 2.11 µM
NCI/ADR-RES
  GI50: 1970 nM
[1]
  growth percent at 10 µM: -74.1%
PC-3
  GI50: 1800 nM
KM12
  GI50: 1840 nM
HCC 2998
  GI50: 1820 nM
WI-38
  pIC50: 4.13
CAKI-1
  GI50: 1810 nM
OVCAR-8
  GI50: 2480 nM
RXF 393
  GI50: 1810 nM
HOP-62
  GI50: 1.9 µM
NCI-H23
  GI50: 1920 nM
NCI-H322M
  GI50: 1690 nM
SK-OV-3
  GI50: 2080 nM
COLO 205
  GI50: 1330 nM
SNB-75
  GI50: 1580 nM
NCI-H226
  GI50: 2230 nM
HCT-15
  GI50: 1220 nM
MDA-MB-435
  GI50: 1700 nM
WISH
  pIC50: 4.06
CCRF-CEM
  GI50: 1880 nM
M14
  GI50: 1730 nM
LOX IMVI
  GI50: 924 nM
K562
  GI50: 418 nM
MCF7
  GI50: 1220 nM
TK-10
  GI50: 1970 nM
786-0
  GI50: 1870 nM
SR
  GI50: 231 nM
RPMI-8226
  GI50: 1460 nM
SNB-19
  GI50: 1970 nM
SW-620
  GI50: 1950 nM
DU-145
  GI50: 1770 nM
Homo sapiens
  inhibition: 19 to 36%
SN12C
  GI50: 1970 nM
[2]
  inhibition: 57%
NCI-H522
  GI50: 1960 nM
HL-60(TB)
  GI50: 1900 nM
BT-549
  GI50: 1800 nM
MOLT-4
  GI50: 1650 nM
HT-29
  GI50: 1090 nM
HCT-116
  GI50: 1760 nM
HOP-92
  GI50: 1750 nM
UACC-257
  GI50: 2760 nM
